EC50 data for 21 molecules are collected here from patent US10941147B2, “Bicyclic heteroaryl derivatives” (Hoffmann-La Roche Inc., priority 2016, dated 2021).

In this assay the target is T1, γ-secretase (Homo sapiens, UniProt P49768).
T1 construct: Human neuroglioma H4 cells overexpressing human APP695; endogenous in cells; host or cells: human neuroglioma H4 cells stably overexpressing human APP695 Swedish
Description: Cellular γ-secretase assay (inhibition of Aβ42 secretion, AlphaLisa). The note with it: Human neuroglioma H4 cells overexpressing human APP695 Swedish double mutation; 24 hr compound incubation; secreted Aβ42 in supernatant. It counts as cell-based. Here is the method:
Description of γ-Secretase Assay
Cellular γ-Secretase Assay
Human neuroglioma H4 cells overexpressing human APP695 with the Swedish double mutation (K595N/M596L) were plated at 30,000 cells/well/100 al in 96-well plates in IMDM media containing 10% FCS, […] Hygromycin B and incubated at 37° C., 5% CO2.
3-4 hr post plating, compounds are a diluted in media and 50 μl is added as 1.5-fold concentrate to achieve the final concentration. Compound incubation is performed for 24 hr. Final doses typically range from 4 μM down to 0.0013 μM in half-log steps resulting in a eight point dose response curve.
Appropriate controls using vehicle only and reference compound were applied to this assay. The final concentration of Me2SO was 0.4%.
After incubation at 37° C., 5% CO2, the supernatant was subjected to quantification of secreted Aβ42 by the means of an AlphaLisa assay kit (Human Amyloid beta 1-42 Kit: Cat #AL203C, Perkin Elmer). 20 μl of the cell culture supernatant was transferred to an assay plate. Then 10 μl of a mixture of the AlphaLisa coupled capture antibody and the biotinylated detection antibody was added and incubated for 3 hours at room temperature while softly shaking the assay plate. After a further addition of 20 μl of the Donor beads the assay plate was incubated for 30 min at room temperature and constant shaking without exposure to direct light. The assay plate was then read on a Paradigm AlphaLisa Reader using the build-in program with excitation at 680 nm and emission at […].
The measured signals were then used to calculate IC50 values for inhibition of Aβ42 secretion by nonlinear regression fit analysis using XLfit 5.3 software (IDBS).
Take `Cc1cc(N2C[C@H]3CC[C@@H](C2)[C@@H]3Nc2nc3n(n2)CCCCC3c2ccc(C(F)(F)F)cc2)ncn1` (mixture of isomers) [Example 3, N-[(1R,5S,8S)-3-(6-methylpyrimidin-4-yl)-3-azabicyclo[3.2.1]octan-8-yl]-9-[4-(trifluoromethyl)phenyl]-6,7,8,9-tetrahydro-5H-[1,2,4]triazolo[1,5-a]azepin-2-amine]: the concentration for a half-maximal effect (EC50) turned out to be 20.6 nM. For the molecule `Cc1cc(N2C[C@H]3CC[C@@H](C2)[C@@H]3Nc2nc3n(n2)CCCCC3c2ccc(Cl)cc2)ncn1` (mixture of isomers) [Example 7, 9-(4-chlorophenyl)-N-[(1R,5S,8S)-3-(6-methylpyrimidin-4-yl)-3-azabicyclo[3.2.1]octan-8-yl]-6,7,8,9-tetrahydro-5H-[1,2,4]triazolo[1,5-a]azepin-2-amine], the EC50 came out at 23.4 nM. The molecule `Cc1cc(N2C[C@H]3CC[C@@H](C2)[C@@H]3Nc2nc3n(n2)CCCCC3c2cccc(C(F)(F)F)c2)ncn1` (mixture of isomers) [Example 11, N-[(1R,5S,8S)-3-(6-methylpyrimidin-4-yl)-3-azabicyclo[3.2.1]octan-8-yl]-9-[3-(trifluoromethyl)phenyl]-6,7,8,9-tetrahydro-5H-[1,2,4]triazolo[1,5-a]azepin-2-amine] returned an EC50 of 28 nM. The molecule `Cc1cc(N2C[C@H]3CC[C@@H](C2)[C@@H]3Nc2nc3n(n2)CCCCC3c2ccc(F)c(F)c2F)ncn1` (mixture of isomers) [Example 14, N-[(1R,5S,8S)-3-(6-methylpyrimidin-4-yl)-3-azabicyclo[3.2.1]octan-8-yl]-9-(2,3,4-trifluorophenyl)-6,7,8,9-tetrahydro-5H-[1,2,4]triazolo[1,5-a]azepin-2-amine] gave an EC50 of 12.6 nM.

Molecule `Fc1ccc(C2CCCCn3nc(N[C@@H]4[C@@H]5CC[C@H]4CN(c4cc(Cl)ncn4)C5)nc32)c(F)c1F` (mixture of isomers) [Example 17, N-[(1R,5S,8S)-3-(6-chloropyrimidin-4-yl)-3-azabicyclo[3.2.1]octan-8-yl]-9-(2,3,4-trifluorophenyl)-6,7,8,9-tetrahydro-5H-[1,2,4]triazolo[1,5-a]azepin-2-amine] displayed an EC50 of 17.7 nM. For the molecule `Fc1ccc(C2CCCCn3nc(N[C@@H]4[C@@H]5CC[C@H]4CN(c4ccnc(C(F)(F)F)c4)C5)nc32)c(F)c1F` (stereo partly drawn) [Example 1, N-[(1R,5S,8S)-3-[2-(trifluoromethyl)-4-pyridyl]-3-azabicyclo[3.2.1]octan-8-yl]-9-(2,3,4-trifluorophenyl)-6,7,8,9-tetrahydro-5H-[1,2,4]triazolo[1,5-a]azepin-2-amine], the response was half-maximal at 34.6 nM (EC50). As for `FC(F)(F)c1ccc(C2CCCCn3nc(N[C@@H]4[C@@H]5CC[C@H]4CN(c4ccnc(C(F)(F)F)c4)C5)nc32)cc1` (stereo partly drawn) [Example 2, 9-[4-(trifluoromethyl)phenyl]-N-[(1R,5S,8S)-3-[2-(trifluoromethyl)-4-pyridyl]-3-azabicyclo[3.2.1]octan-8-yl]-6,7,8,9-tetrahydro-5H-[1,2,4]triazolo[1,5-a]azepin-2-amine], the EC50 is 48.4 nM. `Cc1cc(N2C[C@H]3CC[C@@H](C2)[C@@H]3Nc2nc3n(n2)CCCC[C@H]3c2ccc(C(F)(F)F)cc2)ncn1` [Example 4, (9S)—N-[(1R,5S)-3-(6-methylpyrimidin-4-yl)-3-azabicyclo[3.2.1]octan-8-yl]-9-[4-(trifluoromethyl)phenyl]-6,7,8,9-tetrahydro-5H-[1,2,4]triazolo[1,5-a]azepin-2-amine] came in with an EC50 of 37.4 nM. Then `Cc1cc(N2C[C@H]3CC[C@@H](C2)C3Nc2nc3n(n2)CCCC[C@@H]3c2ccc(C(F)(F)F)cc2)ncn1` (stereo partly drawn) [Example 5, (9R)—N-[(1R,5S)-3-(6-methylpyrimidin-4-yl)-3-azabicyclo[3.2.1]octan-8-yl]-9-[4-(trifluoromethyl)phenyl]-6,7,8,9-tetrahydro-5H-[1,2,4]triazolo[1,5-a]azepin-2-amine], with 11.6 nM; and `FC(F)(F)c1cc(N2C[C@H]3CC[C@@H](C2)[C@@H]3Nc2nc3n(n2)CCCCC3c2ccc(Cl)cc2)ccn1` (stereo partly drawn) [Example 6, 9-(4-chlorophenyl)-N-[(1R,5S,8S)-3-[2-(trifluoromethyl)-4-pyridyl]-3-azabicyclo[3.2.1]octan-8-yl]-6,7,8,9-tetrahydro-5H-[1,2,4]triazolo[1,5-a]azepin-2-amine], with 50.6 nM. Molecule `Cc1cc(N2C[C@H]3CC[C@@H](C2)[C@@H]3Nc2nc3n(n2)CCCC[C@H]3c2ccc(Cl)cc2)ncn1` [Example 8, (9S)-9-(4-chlorophenyl)-N-[(1R,5S,8S)-3-(6-methylpyrimidin-4-yl)-3-azabicyclo[3.2.1]octan-8-yl]-6,7,8,9-tetrahydro-5H-[1,2,4]triazolo[1,5-a]azepin-2-amine] displayed an EC50 of 31.9 nM. Molecule `Cc1cc(N2C[C@H]3CC[C@@H](C2)[C@@H]3Nc2nc3n(n2)CCCC[C@@H]3c2ccc(Cl)cc2)ncn1` [Example 9, (9R)-9-(4-chlorophenyl)-N-[(1R,5S,8S)-3-(6-methylpyrimidin-4-yl)-3-azabicyclo[3.2.1]octan-8-yl]-6,7,8,9-tetrahydro-5H-[1,2,4]triazolo[1,5-a]azepin-2-amine] came in with an EC50 of 48.9 nM. The figure for `FC(F)(F)c1cccc(C2CCCCn3nc(N[C@@H]4[C@@H]5CC[C@H]4CN(c4ccnc(C(F)(F)F)c4)C5)nc32)c1` (stereo partly drawn) [Example 10, 9-[3-(trifluoromethyl)phenyl]-N-[(1R,5S,8S)-3-[2-(trifluoromethyl)-4-pyridyl]-3-azabicyclo[3.2.1]octan-8-yl]-6,7,8,9-tetrahydro-5H-[1,2,4]triazolo[1,5-a]azepin-2-amine] is 33.7 nM; for `Cc1cc(N2C[C@H]3CC[C@@H](C2)[C@@H]3Nc2nc3n(n2)CCCC[C@H]3c2cccc(C(F)(F)F)c2)ncn1` [Example 12, (9S)—N-[(1R,5S,8S)-3-(6-methylpyrimidin-4-yl)-3-azabicyclo[3.2.1]octan-8-yl]-9-[3-(trifluoromethyl)phenyl]-6,7,8,9-tetrahydro-5H-[1,2,4]triazolo[1,5-a]azepin-2-amine] it is 14.9 nM; for `Cc1cc(N2C[C@H]3CC[C@@H](C2)[C@@H]3Nc2nc3n(n2)CCCC[C@@H]3c2cccc(C(F)(F)F)c2)ncn1` [Example 13, (9R)—N-[(1R,5S,8S)-3-(6-methylpyrimidin-4-yl)-3-azabicyclo[3.2.1]octan-8-yl]-9-[3-(trifluoromethyl)phenyl]-6,7,8,9-tetrahydro-5H-[1,2,4]triazolo[1,5-a]azepin-2-amine] it is 15 nM. Then `Cc1cc(N2C[C@H]3CC[C@@H](C2)[C@@H]3Nc2nc3n(n2)CCCC[C@H]3c2ccc(F)c(F)c2F)ncn1` [Example 15, (9S)—N-[(1R,5S,8S)-3-(6-methylpyrimidin-4-yl)-3-azabicyclo[3.2.1]octan-8-yl]-9-(2,3,4-trifluorophenyl)-6,7,8,9-tetrahydro-5H-[1,2,4]triazolo[1,5-a]azepin-2-amine], with 8.4 nM; and `Cc1cc(N2C[C@H]3CC[C@@H](C2)[C@@H]3Nc2nc3n(n2)CCCC[C@@H]3c2ccc(F)c(F)c2F)ncn1` [Example 16, (9R)—N-[(1R,5S,8S)-3-(6-methylpyrimidin-4-yl)-3-azabicyclo[3.2.1]octan-8-yl]-9-(2,3,4-trifluorophenyl)-6,7,8,9-tetrahydro-5H-[1,2,4]triazolo[1,5-a]azepin-2-amine], with 7.1 nM; and `Fc1ccc([C@@H]2CCCCn3nc(N[C@@H]4[C@@H]5CC[C@H]4CN(c4cc(Cl)ncn4)C5)nc32)c(F)c1F` [Example 18, (9S)—N-[(1R,5S,8S)-3-(6-chloropyrimidin-4-yl)-3-azabicyclo[3.2.1]octan-8-yl]-9-(2,3,4-trifluorophenyl)-6,7,8,9-tetrahydro-5H-[1,2,4]triazolo[1,5-a]azepin-2-amine], with 12.4 nM. Consider `Fc1ccc([C@H]2CCCCn3nc(N[C@@H]4[C@@H]5CC[C@H]4CN(c4cc(Cl)ncn4)C5)nc32)c(F)c1F` [Example 19, (9R)—N-[(1R,5S,8S)-3-(6-chloropyrimidin-4-yl)-3-azabicyclo[3.2.1]octan-8-yl]-9-(2,3,4-trifluorophenyl)-6,7,8,9-tetrahydro-5H-[1,2,4]triazolo[1,5-a]azepin-2-amine], for which the EC50 came out at 12.5 nM. In the case of `COc1cc(N2C[C@H]3CC[C@@H](C2)[C@@H]3Nc2nc3n(n2)CCCCC3c2ccc(F)c(F)c2F)ccn1` (stereo partly drawn) [Example 20, N-[(1R,5S,8S)-3-(2-methoxy-4-pyridyl)-3-azabicyclo[3.2.1]octan-8-yl]-9-(2,3,4-trifluorophenyl)-6,7,8,9-tetrahydro-5H-[1,2,4]triazolo[1,5-a]azepin-2-amine], the EC50 came out at 8.5 nM.

For the molecule `COc1cc(N2C[C@H]3CC[C@@H](C2)[C@@H]3Nc2nc3n(n2)CCCCC3c2ccc(F)c(F)c2F)ncn1` (stereo partly drawn) [Example 21, N-[(1R,5S,8S)-3-(6-methoxypyrimidin-4-yl)-3-azabicyclo[3.2.1]octan-8-yl]-9-(2,3,4-trifluorophenyl)-6,7,8,9-tetrahydro-5H-[1,2,4]triazolo[1,5-a]azepin-2-amine], the midpoint of the response, the EC50, lay at 53.4 nM.
